Experimental findings from patent publication US9278118B2, “Pharmaceutical combination for the treatment and/or chemosensibilization of refractory tumors to anticancer drugs” (Centro de Ingenieria Genetica Y Biotecnologia, priority 2006, dated 2016) are described below.

For experiment [1], the system named is H-125 cells. In words: Cell viability (MTS) assay, sequential: P15 pre-treatment, then cytostatic drug.
In experiment [2] the test system is H-125 or OCI-AML3 cells. Put plainly: Cell viability (MTS) assay, simultaneous P15 peptide + cytostatic drug, 72 hours. The experiment is classed as cell-based, human. Here is the method: Finally, the cell viability and the IC50 values were determined as above described in this invention.
The subject of experiment [3] is H-125 or OCI-AML3 tumor cells. Put plainly: Cancer animal model, human tumor xenografted in nude mice, simultaneous administration. The experiment is classed as in vivo, nude mice (Nu/Nu, BalBC). The settings on record: for interaction with P15, antitumor effect in vivo: administered along with P15, FIG. 4; for antitumor effect (tumor volume): cytostatic 1 mg/kg/day i.p. concomitantly with P15 0.5 mg/kg/day i.p., 5 days, FIG. 1A-1C. As to the method:
(§1) The animal model used in this invention was based on the implantation of human tumors in nude mice (Nu/Nu, BalBC). […] After tumor debut (approx. 30 mm^3), treatment was started using the pharmaceutical combination described in this invention. To evaluate the antitumor effect of the pharmaceutical combination, the tumor mass volume was measured and the respective volume was calculated using the formule: V=widght^2×lenght/2.
(§2) After tumor debut, the ingredients of the pharmaceutical combination were administered as follow: The P15 peptide in saline solution was administered intraperitoneal at 0.5 mg/kg/day during 5 days. Concomitantly, intraperitoneal injection of cisplatin (FIG. 1A), or cyclophosphamide (FIG. 1B) or Mitomycin (FIG. 1C) were performed at 1 mg/kg/day in the same frequency. The cytostatic drugs are also solved in saline solution. Tumor volume was registered as described above in this invention.
For orientation: Xenograft models place foreign cells or tissue in a host animal.

In experiment [4] the test system is SW948 cells. In words: In vivo chemosensibilization, SW948 tumors in nude mice, sequential administration. The settings on record: P15 0.5 mg/kg/day i.p. 5 days, then cytostatic 5 mg/kg/day 5 days, FIG. 2A-2C. Here is the method: The animal model used in this invention was based on the implantation of human tumors in nude mice (Nu/Nu, BalBC). Briefly, 5×10^6 H-125 or OCI-AML3 cells were suspended in Phosphate Buffer Solution (PBS) and inoculated subcutaneously. After tumor debut (approx. 30 mm^3), treatment was started using the pharmaceutical combination described in this invention. To evaluate the antitumor effect of the pharmaceutical combination, the tumor mass volume was measured and the respective volume was calculated using the formule: V=widght^2×lenght/2.
For this purpose, 5×10^6 SW948 cells were implanted in nude mice as previously described in this invention. After tumor debut the pharmaceutical combination was sequentially administered as follow: First, the P15 peptide ingredient was administered intraperitoneal at 0.5 mg/kg/day during 5 days. Subsequently, cisplatin (FIG. 2A), Paclitaxel (FIG. 2B) and doxorubicin (FIG. 2C) were administered at 5 mg/kg/day during further 5 days. […] These findings also provide the evidences that the pharmaceutical combination in this invention is able to bypass the commonly observed intrinsic tumor resistance when the ingredients are sequentially administered.

Experiment [5] has as its system SW948 cells. Put plainly: Cell viability (MTS) assay, P15 pre-treatment on intrinsic drug-refractory tumor cells. The experiment is classed as cell-based, human.
For experiment [6], the system named is OCI-AML3 cells. Put plainly: Animal model of AML, P15 + anti-leukemic chemotherapeutics. The experiment is classed as in vivo, nude mice (Nu/Nu, BalBC). The note with it: combination with P15, animal model of AML; FIG. 3. Here is the method:
as §1, §2

The mark [7] stands for this setting: read-out: IC50, Cytostatic drug alone, H-125 cells, 72 hours, no P15 pre-treatment.
Where [8] appears, read: H-125 or OCI-AML3 cells, 72 hours, no P15, read-out: IC50, Cytostatic drug alone.
Where [9] appears, read: H-125 or OCI-AML3 cells, 72 hours, simultaneous P15 50 μM, read-out: IC50, Cytostatic drug + P15 (50 μM).
The mark [10] stands for this setting: read-out: IC50, Cytostatic drug + P15 (10 μM), H-125 or OCI-AML3 cells, 72 hours, simultaneous P15 10 μM.
Where [11] appears, read: Homo sapiens, NCI-H125, read-out: IC50, Cytostatic drug alone.
Where [12] appears, read: Homo sapiens, H-125 or OCI-AML3 cells, 72 hours, no P15, read-out: IC50, Cytostatic drug alone.
Setting [13] is: Homo sapiens, P15 pre-treatment, read-out: IC50, Cytostatic drug + P15 pre-treatment.
Where [14] appears, read: Homo sapiens, no P15 pre-treatment, read-out: IC50, Cytostatic drug alone.

Read-outs that look alike come from different tables or passages of the source.

With `N.N.O=C([O-])C1(C(=O)[O-])CCC1.[Pt+2]` [Carboplatin, carboplatin], the IC50 was found to be 450 nM in experiment [1] (setting [7]), 650 nM in experiment [2] (setting [8]), 36 nM in experiment [2] (setting [9]) and 70 nM in experiment [2] (setting [10]). The “interaction with P15, antitumor effect in vivo” value (from here on “interaction with P15”) in experiment [3] was “synergistic interactions”.
`O=P1(N(CCCl)CCCl)NCCCO1` (stereo not drawn) [Cyclophosphamide, cyclophosphamide]: the IC50 in experiment [1] (setting [11]) came to 2400 nM; in experiment [1] (read-out: IC50, Cytostatic drug + P15 pre-treatment), 100 nM; in experiment [2] (Homo sapiens, 72 h, read-out: IC50, Cytostatic drug alone), 2400 nM; in experiment [2] (read-out: IC50, Cytostatic drug + P15 (10 μM)), 1000 nM; in experiment [2] (read-out: IC50, Cytostatic drug + P15 (50 μM)) it was 85 nM. Besides, the “antitumor effect (tumor volume)” value in experiment [3] is recorded as “complete tumor regression”.
As to `O=c1[nH]cc(F)c(=O)[nH]1` [5-Fluorouracil, 5-fluorouracil], the half-inhibitory concentration (IC50) turned out to be 1200 nM in experiment [1] (setting [11]), 60 nM in experiment [2] (setting [9]), 1200 nM in experiment [2] (setting [12]) and 420 nM in experiment [2] (setting [10]).
`N.N.[Cl][Pt][Cl]` [Cisplatin, cisplatin]: the half-inhibitory concentration (IC50) in experiment [1] (setting [7]) was 720 nM; in experiment [5] (P15 pre-treatment, read-out: IC50, Cytostatic drug + P15 pre-treatment) it was 120 µM; in experiment [5] (no P15 pre-treatment, read-out: IC50, Cytostatic drug alone), at least 1000 µM; in experiment [2] (setting [8]), 720 nM; in experiment [2] (setting [9]), 40 nM; in experiment [2] (setting [10]) it was 530 nM. The “chemosensibilization in vivo (tumor response to cytostatic)” value (from here on “chemosensibilization in vivo”) in experiment [4] was “revert the chemorefractory phenotype”. In addition, the “antitumor effect (tumor volume)” value in experiment [3] is “complete tumor regression”.
Consider `COc1cc([C@@H]2c3cc4c(cc3[C@@H](O[C@@H]3O[C@@H]5CO[C@@H](C)O[C@H]5[C@H](O)[C@H]3O)[C@H]3COC(=O)[C@H]23)OCO4)cc(OC)c1O` [Etoposide, etoposide], for which the IC50 in experiment [1] (setting [11]) turned out to be 561 nM; in experiment [2] (setting [9]), 20 nM; in experiment [2] (setting [12]) it was 780 nM; in experiment [2] (setting [10]) it was 60 nM. In addition, the “interaction with P15” value in experiment [3] is given as “synergistic interactions”.
Regarding `COc1cccc2c1C(=O)c1c(O)c3c(c(O)c1C2=O)C[C@@](O)(C(=O)CO)C[C@@H]3O[C@H]1C[C@H](N)[C@H](O)[C@H](C)O1` [Doxorubicin, doxorubicin], the half-inhibitory concentration (IC50) in experiment [1] (setting [11]) was 423 nM; in experiment [5] (setting [13]) it was 320 µM; in experiment [5] (setting [14]), at least 1000 µM; in experiment [2] (setting [9]) it was 76 nM; in experiment [2] (setting [12]) it was 423 nM; in experiment [2] (setting [10]), 200 nM. For the same molecule, in experiment [4], the “chemosensibilization in vivo” value is “revert the chemorefractory phenotype”.
`O=C1c2c(O)ccc(O)c2C(=O)c2c(NCCNCCO)ccc(NCCNCCO)c21` [Mitoxantrone, mitoxantrone]: the IC50 in experiment [1] (setting [11]) came to 700 nM; in experiment [2] (setting [9]), 32 nM; in experiment [2] (setting [12]), 754 nM; in experiment [2] (setting [10]), 64 nM. Moreover, in experiment [6], the “interaction with P15” value is recorded as “great synergistic interaction”.
As to `CC(=O)O[C@H]1C(=O)[C@@]2(C)[C@H]([C@H](OC(=O)c3ccccc3)[C@]3(O)C[C@H](OC(=O)[C@H](O)[C@@H](NC(=O)c4ccccc4)c4ccccc4)C(C)=C1C3(C)C)[C@]1(OC(C)=O)CO[C@@H]1C[C@@H]2O` [Paclitaxel, paclitaxel], the IC50 was 17 nM in experiment [1] (setting [11]); 97 µM in experiment [5] (setting [13]); at least 1000 µM in experiment [5] (setting [14]); 3 nM in experiment [2] (setting [9]); 17 nM in experiment [2] (setting [12]); 8 nM in experiment [2] (setting [10]). Besides, the “chemosensibilization in vivo” value in experiment [4] is reported as “revert the chemorefractory phenotype”.
On to `CC[C@]1(O)C[C@H]2CN(CCc3c([nH]c4ccccc34)[C@@](C(=O)OC)(c3cc4c(cc3OC)N(C=O)[C@H]3[C@@](O)(C(=O)OC)[C@H](OC(C)=O)[C@]5(CC)C=CCN6CC[C@]43[C@@H]65)C2)C1` [Vincristin, vincristin], for which the IC50 in experiment [1] (setting [11]) came to 856 nM; in experiment [2] (setting [9]) it was 8 nM; in experiment [2] (setting [12]), 856 nM; in experiment [2] (setting [10]), 100 nM.
Consider `Nc1ccn([C@@H]2O[C@H](CO)[C@@H](O)[C@@H]2O)c(=O)n1` [Cytarabine (AraC), cytarabine], for which the IC50 was found to be 980 nM in experiment [1] (setting [11]), 68 nM in experiment [2] (setting [9]), 1000 nM in experiment [2] (setting [12]) and 110 nM in experiment [2] (setting [10]). Besides, the “interaction with P15” value in experiment [6] is “great synergistic interaction”.
As for `CC(C)C[C@H](NC(=O)[C@H](Cc1ccccc1)NC(=O)c1cnccn1)B(O)O` [Velcade, Bortezomib], the concentration for half-maximal inhibition (IC50) is 2000 nM in experiment [1] (setting [11]), 700 nM in experiment [2] (setting [9]), 2000 nM in experiment [2] (setting [12]) and 1200 nM in experiment [2] (setting [10]).
With `Nc1nc(F)nc2c1ncn2[C@@H]1O[C@H](CO)[C@@H](O)[C@@H]1O` [Fludarabine, fludarabine], the half-maximal inhibitory concentration (IC50) in experiment [1] (setting [11]) was found to be 865 nM; in experiment [2] (setting [9]), 50 nM; in experiment [2] (setting [12]) it was 870 nM; in experiment [2] (setting [10]), 96 nM.
Consider `CO[C@@]12[C@H](COC(N)=O)C3=C(C(=O)C(C)=C(N)C3=O)N1C[C@@H]1N[C@@H]12` [Mitomycin C, mitomycin C], for which the 50% inhibitory concentration (IC50) in experiment [1] (setting [11]) was determined as 994 nM; in experiment [2] (setting [9]), 9 nM; in experiment [2] (setting [12]), 994 nM; in experiment [2] (setting [10]), 93 nM. The “antitumor effect (tumor volume)” value in experiment [3] is on record as “complete tumor regression”.

By IC50 is commonly meant the midpoint of a concentration-inhibition curve.
